According to US8912194B2, “CDK inhibitor for the treatment of mesothelioma” (Nerviano Medical Sciences S.R.L., priority 2008, dated 2014):

How the values were obtained:
[1] = target: Thropomyosin Receptor Kinase A (TRKA) (Homo sapiens, UniProt P04629); assay: Scintillation Proximity Assay (SPA) for kinases; type: biochemical; conditions: read-out: IC50 (printed 1050) towards TRKA
Method: This assay allows measurement of the inhibition of the kinase activity of a specific enzyme obtained with test compound. Different kinases can be tested in parallel.
A biotinylated substrate is trans-phosphorylated by a specific kinase in the presence of ATP including a γ33-ATP tracer. At the end of the reaction the phosphorylated substrate is then captured using Streptavidin-coated SPA beads. A dense 5M CsCl solution is added and the mixture is incubated for four hours. This causes the SPA beads to float to the top of the CsCl solution containing the unincorporated radiolabelled ATP.
The extent of phosphorylation is measured using a β-counter.

[2] = test system: MSTO-211H mesothelioma cell line; assay: Inhibition of cell proliferation (cellular ATP monitoring); type: cell-based; conditions: Homo sapiens, 72 hours after treatment
Method: (§1) MSTO-211H, NCI-H2052 and NCI-H28 mesothelioma cell lines were cultured in RPMI 1640 added with 10% FCS, 2 mM glutamine, 1 mM sodium pyruvate and 10 mM HEPES. For all the experiments cells were seeded at the density of 1×10^4/cm^2, the day after treatment with the compound for the prescribed duration and then collected at the reported times.
(§2) Cells were washed and counted 72 hours after the treatment. Cell proliferation was determined by a cellular adenosine triphosphate monitoring system. Cell proliferation was compared to control cells. The concentration inhibiting cell proliferation by 50% (IC50) was calculated.

[3] = test system: NCI-H2052 mesothelioma cell line; assay: as above; type: cell-based; conditions: Homo sapiens; NCI-H2052, 72 hours after treatment
Method: as §1, §2

[4] = test system: NCI-H28 mesothelioma cell line; assay: as above; type: cell-based; conditions: Homo sapiens; NCI-H28, 72 hours after treatment
Method: as §1, §2

[5] = test system: MSTO-211H mesothelioma cell line; assay: Analysis of cell cycle progression and apoptosis induction (cytofluorimetry, propidium iodide); type: cell-based
Method: (§3) MSTO-211H, NCI-H2052 and NCI-H28 mesothelioma cell lines were cultured in RPMI 1640 added with 10% FCS, 2 mM glutamine, 1 mM sodium pyruvate and 10 mM HEPES. For all the experiments cells were seeded at the density of 1×10^4/cm^2, the day after treatment with the compound for the prescribed duration and then collected at the reported times. Cells were washed 24 hours after the treatment, fixed with cold methanol 70% and stored at −20° C. Fixed cells were washed with PBS to remove methanol and were stained with 25 μg/mL of propidium iodide, 5 μg/mL of RNase, and 0.125 μg/mL of Nonidet P 40. Cells were kept at room temperature for 60 minutes in the dark and were analyzed by BD FACSCalibur™ system interfaced to a Macintosh G4 computer with BD CellQuest™ 3.3 software. All doublets or aggregates were removed during analysis by an appropriate gate on an FL3-A/FL3-W dot plot and DNA content analysis was performed in ≧10,000 gated cells. DNA histograms (shown in FIG. 1) were analyzed using ModFit LT™

[6] = test system: NCI-H2052 mesothelioma cell line; assay: as above; type: cell-based; conditions: NCI-H2052, 24 hours after treatment, cytofluorimetric analysis
Method: as §3

[7] = test system: NCI-H28 mesothelioma cell line; assay: as above; type: cell-based; conditions: NCI-H28, 24 hours after treatment, cytofluorimetric analysis
Method: as §3

[8] = test system: mesothelioma cells (MSTO-211H, NCI-H2052, NCI-H28); assay: Inhibition of cell proliferation, summary over all tested mesothelioma cells; type: cell-based; conditions: all the tested mesothelioma cells, 72 hours; read-out: IC50 range, inhibition of proliferation
Method: as §1, §2

[9] = test system: Rb phosphorylation, cyclin A and cdc6 expression in NCI-H28 cells; assay: Western blot analysis of cell cycle related markers; type: cell-based; conditions: 1 and 3 μM, 24 hours, FIG. 2
Method: (§4) Treated cells were lysed by adding SDS sample buffer (0.125M Tris-HCl pH6.8, 5% SDS). Samples were heated to 95° C. for 5 minutes and then sonicated using an Ultrasonic 2000 ARTEK. Lysed cells were centrifuged at 13,000 RPM for 10 minutes. Protein quantification was determined using BCA buffer (Pierce) and a BSA standard curve. 20 μg protein extract per well were loaded and separated by SDS-PAGE gel 7.5-10% (PAGE-PLUS 40% concentrate AMRESCO). The gel was blotted onto nitrocellulose filters (Hybond Amersham) in a buffer containing 25 mM Tris HCl pH 8.3, 192 mM Glycine and 20% methanol. The filters were saturated in 5% low-fat milk in TBS containing 0.1% Tween 20 (TBS-T) for 2 hours at room temperature and than incubated overnight at 4° C. with the primary monoclonal followed by washes in TBS-T and incubation using a secondary anti mouse antibody. The bands were visualized using the “Super Signal West Pico” Pierce.

[10] = test system: phosphorylation of AKT, S6 and MAPK in NCI-H28 cells; assay: Western blot analysis of tyrosine kinase growth factor receptor mediated pathways; type: cell-based; conditions: 1 and 3 μM, FIG. 2
Method: as §4

[11] = test system: cell cycle related markers in mesothelioma cell lines; assay: Western blot analysis of cell cycle related markers, all cell lines; type: cell-based; conditions: all mesothelioma cell lines tested
Method: as §4

mesothelioma = conditions: single agent, mesothelioma patients; cited from earlier work

Thropomyosin Receptor Kinase A (TRKA), sequence (P04629 33-796): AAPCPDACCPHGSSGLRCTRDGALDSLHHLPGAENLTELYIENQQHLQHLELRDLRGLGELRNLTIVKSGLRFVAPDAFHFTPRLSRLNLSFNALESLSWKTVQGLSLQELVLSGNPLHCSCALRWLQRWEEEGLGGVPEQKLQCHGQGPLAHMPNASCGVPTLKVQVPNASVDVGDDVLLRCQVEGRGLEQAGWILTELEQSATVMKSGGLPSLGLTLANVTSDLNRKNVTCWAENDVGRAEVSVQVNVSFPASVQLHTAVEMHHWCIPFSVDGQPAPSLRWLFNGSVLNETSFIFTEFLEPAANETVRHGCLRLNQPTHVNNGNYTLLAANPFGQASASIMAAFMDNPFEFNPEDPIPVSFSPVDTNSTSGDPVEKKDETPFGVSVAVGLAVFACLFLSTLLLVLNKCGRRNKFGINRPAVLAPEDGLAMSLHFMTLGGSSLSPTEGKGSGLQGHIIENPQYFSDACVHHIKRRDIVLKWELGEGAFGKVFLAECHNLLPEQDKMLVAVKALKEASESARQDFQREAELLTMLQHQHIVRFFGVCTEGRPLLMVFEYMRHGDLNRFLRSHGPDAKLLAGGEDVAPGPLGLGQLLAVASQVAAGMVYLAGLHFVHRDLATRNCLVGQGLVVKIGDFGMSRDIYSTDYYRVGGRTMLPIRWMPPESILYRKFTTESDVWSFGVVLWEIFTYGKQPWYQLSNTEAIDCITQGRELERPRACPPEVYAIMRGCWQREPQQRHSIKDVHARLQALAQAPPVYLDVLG

IC50 [1] [nM] | IC50 [2] [µM] | IC50 [3] [µM] | IC50 [4] [µM] | IC50 [8] [nM] | SMILES | Effect on cell cycle progression ([5]; 1 μM, 24 hours, FIG. 1) | Sub G1 peak (induction of apoptosis) ([5]; 3 μM, 24 hours, FIG. 1) | Sub G1 % (percentage of cells with a sub G1 DNA content, apoptosis) ([5]; 24 hours after treatment, cytofluorimetric analysis) [%] | Sub G1 % (percentage of cells with a sub G1 DNA content, apoptosis) [6] [%] | Sub G1 % (percentage of cells with a sub G1 DNA content, apoptosis) [7] [%] | Rb phosphorylation ([9]; NCI-H28 cells (mutated in p16/CDKN2A)) | cdc6 expression ([9]; NCI-H28 cells) | cyclin A expression ([9]; NCI-H28 cells) | phosphorylation of AKT [10] | phosphorylation of MAPK [10] | phosphorylation of S6 [10] | cell cycle related markers [11] | median overall survival (mesothelioma) [months] | response rate (mesothelioma) [%]
53 | 0.23 ± 0.1 | 0.74 ± 0.37 | 1.56 ± 0.52 | 230 to 1560 | CNC(=O)c1nn(C)c2c1C(C)(C)Cc1cnc(Nc3ccc(N4CCN(C)CC4)cc3)nc1-2 [compound of formula (I), 8-[4-(4-methyl-piperazin-1-yl)-phenylamino]-1,4,4-trimethyl-4,5-dihydro-1H-pyrazolo[4,3-h]quinazoline-3-carboxylic acid methylamide] | G1 block | increase of the sub G1 peak | 24 | 14 | 5 | strong inhibition | strong inhibition | strong inhibition | Inhibition in phosphorylation | Inhibition in phosphorylation | Inhibition in phosphorylation | decrease | – | –
– | – | – | – | – | Nc1nc2[nH]cc(CCc3ccc(C(=O)N[C@@H](CCC(=O)O)C(=O)O)cc3)c2c(=O)[nH]1 [pemetrexed] | – | – | – | – | – | – | – | – | – | – | – | – | 10.7 | 14.1
